Measurements: ChEMBL document CHEMBL6177971, “Iterative Optimization Yields Stapled Peptides with Superior Pharmacokinetics and Potency for Renal Fibrosis Treatment” (J Med Chem, 2025)
Calls of active or inactive are those of the source. The calls are words filed in the database; no cut-off is given here.

Tests used:
[1] = Clearance in male C57BL/6J mouse at 2.8 mg/kg, iv measured for 3 to 240 mins by UHPLC-HRMS analysis; type: ADME, organism-based; conditions: in vivo, time 3-240 min
HK-2 [2] = assay: Inhibition of myofibroblast activation in TGF-beta1-induced EMT in human HK-2 cells assessed as decrease in ACTA2 mRNA level at 1 to 5 uM incubated for 24 hrs by qPCR analysis; type: functional, cell-based; conditions: dose 1-5 µM
Mus musculus [3] = assay: Anti-fibrotic activity in C57BL/6J mouse model of unilateral ureteral obstruction assessed as decrease in kidney edema at 0.05 to 1.25 mg/kg, ip administered every day for 7 days; type: functional, organism-based; conditions: dose 0.05-1.25 mg/kg, time 7.0 day
Mus musculus [4] = assay: Anti-fibrotic activity in C57BL/6J mouse model of unilateral ureteral obstruction assessed as decrease in MMP2 level at 0.25 mg/kg, ip administered every day for 7 days by Western blot analysis; type: functional, organism-based; conditions: time 7.0 day
NIH3T3 [5] = assay: Inhibition of myofibroblast activation in TGF-beta1-induced EMT in mouse NIH3T3 cells assessed as decrease in vimentin level at 1 to 2 uM incubated for 48 hrs by Western blot analysis; type: functional, cell-based; conditions: dose 1-2 µM
Mus musculus [6] = assay: Anti-fibrotic activity in C57BL/6J mouse model of unilateral ureteral obstruction assessed as decrease in fibronectin mRNA level at 0.25 mg/kg, ip administered every day for 7 days by qPCR analysis; type: functional, organism-based; conditions: time 7.0 day
Mus musculus [7] = assay: Anti-fibrotic activity in C57BL/6J mouse model of unilateral ureteral obstruction assessed as decrease in renal fibronectin […] level administered intraperitoneally every day for 7 days by IHC analysis; type: functional, organism-based; conditions: dose 0.05-1.25 mg/kg, route ip, time 7.0 day
NIH3T3 [8] = assay: Cytotoxicity against mouse NIH3T3 cells assessed as inhibition of cell viability at 10 to 40 uM incubated for 48 hrs by CCK8 assay; type: toxicity, cell-based; conditions: nih3t3, 48 h, dose 10-40 µM
NIH3T3 [9] = assay: Inhibition of TGF-beta1-induced EMT in mouse NIH3T3 cells assessed as decrease in fibronectin level at 10 uM incubated for 48 hrs by Western blot analysis; type: functional, cell-based
Mus musculus [10] = assay: Anti-fibrotic activity in C57BL/6J mouse model of unilateral ureteral obstruction assessed as decrease in alpha-SMA level at 0.25 mg/kg, ip administered every day for 7 days by Western blot analysis; type: functional, organism-based; conditions: time 7.0 day
Mus musculus [11] = assay: Anti-fibrotic activity in C57BL/6J mouse model of unilateral ureteral obstruction assessed as decrease in TGF-beta1 mRNA level at 0.25 mg/kg, ip administered every day for 7 days by qPCR analysis; type: functional, organism-based; conditions: time 7.0 day
Mus musculus [12] = assay: Anti-fibrotic activity in C57BL/6J mouse model of unilateral ureteral obstruction assessed as decrease in fibronectin level at 0.25 mg/kg, ip administered every day for 7 days by Western blot analysis; type: functional, organism-based; conditions: time 7.0 day
[13] = MRT in male C57BL/6J mouse at 2.8 mg/kg, iv measured for 3 to 240 mins by UHPLC-HRMS analysis; type: ADME, organism-based; conditions: in vivo, time 3-240 min
[14] = Half life of compound; type: physicochemical
HK-2 [15] = assay: Inhibition of myofibroblast activation in TGF-beta1-induced EMT in human HK-2 cells assessed as decrease in alpha-SMA level at 1 to 10 uM incubated for 24 hrs by Western blot analysis; type: functional, cell-based; conditions: dose 1-10 µM
NIH3T3 [16] = assay: Inhibition of myofibroblast activation in TGF-beta1-induced EMT in mouse NIH3T3 cells assessed as decrease in MMP2 level at 1 to 2 uM incubated for 48 hrs by Western blot analysis; type: functional, cell-based; conditions: dose 1-2 µM
Mus musculus [17] = assay: Anti-fibrotic activity in C57BL/6J mouse model of unilateral ureteral obstruction assessed as minimum effective dose administered intraperitoneally every day for 7 days; type: functional; conditions: route ip; time 7 day
[18] = Half life in male C57BL/6J mouse at 2.8 mg/kg, iv measured for 3 to 240 mins by UHPLC-HRMS analysis; type: ADME, organism-based; conditions: in vivo, time 3-240 min
HK-2 [19] = assay: Inhibition of myofibroblast activation in TGF-beta1-induced EMT in human HK-2 cells assessed as decrease in COL1A1 mRNA level at 1 to 5 uM incubated for 24 hrs by qPCR analysis; type: functional, cell-based; conditions: dose 1-5 µM
NIH3T3 [20] = assay: Inhibition of myofibroblast activation in TGF-beta1-induced EMT in mouse NIH3T3 cells assessed as decrease in fibronectin level incubated for 48 hrs by Western blot analysis; type: functional, cell-based; conditions: dose 1-10 µM
[21] = Stability in C57BL/6J mouse serum assessed as proteolysis resistance measured up to 72 hrs by HPLC analysis; type: ADME, cell-free
HK-2 [22] = assay: Inhibition of myofibroblast activation in TGF-beta1-induced EMT in human HK-2 cells assessed as increase in E-cadherin level at 1 to 5 uM incubated for 24 hrs by Western blot analysis; type: functional, cell-based; conditions: dose 1-5 µM
Mus musculus [23] = assay: Anti-fibrotic activity in C57BL/6J mouse model of unilateral ureteral obstruction assessed as decrease in vimentin mRNA level at 0.25 mg/kg, ip administered every day for 7 days by qPCR analysis; type: functional, organism-based; conditions: time 7.0 day
Mus musculus [24] = assay: Anti-fibrotic activity in C57BL/6J mouse model of unilateral ureteral obstruction assessed as decrease in collagen I mRNA level at 0.25 mg/kg, ip administered every day for 7 days by qPCR analysis; type: functional, organism-based; conditions: time 7.0 day
HK-2 [25] = assay: Inhibition of myofibroblast activation in TGF-beta1-induced EMT in human HK-2 cells assessed as decrease in MMP2 mRNA level at 1 to 5 uM incubated for 24 hrs by qPCR analysis; type: functional, cell-based; conditions: dose 1-5 µM

clearance [1]: 0.467 mL/min | MRT [13]: 0.337 h | half-life [14]: 27 h | half-life [18]: 1.08 h | Stability [21]: Stable
Compound: CCCCCCCCCCCC(=O)N[C@H](CC(=O)O)C(=O)N[C@@H](Cc1c[nH]cn1)C(=O)N[C@@H](CC(N)=O)C(=O)N[C@H]1CSCCCCCCSC[C@@H](C(N)=O)NC(=O)[C@@H](C)NC(=O)[C@H](CCC(N)=O)NC(=O)[C@@H]2CCCN2C1=O
inhibition (HK-2 [2]): Active | Activity (Mus musculus [3]): Active | Activity (Mus musculus [4]): Active | inhibition (NIH3T3 [5]): Active | Activity (Mus musculus [6]): Active | Activity (Mus musculus [7]): Dose-dependent-effect | Activity (NIH3T3 [8]): Non-toxic | inhibition (NIH3T3 [9]): Active | Activity (Mus musculus [10]): Active | Activity (Mus musculus [11]): Active | Activity (Mus musculus [12]): Active | inhibition (HK-2 [15]): Active; No Additional Suppression Observed At Concentrations Above 5 Î¼M | inhibition (NIH3T3 [16]): Active | MEC (Mus musculus [17]): 0.05 mg/kg | inhibition (HK-2 [19]): Active | inhibition (NIH3T3 [20]): Active; No Further Enhancement In Antifibrotic Activity Was Observed At Concentrations Above 2 Î¼M | inhibition (HK-2 [22]): Active | Activity (Mus musculus [23]): Active | Activity (Mus musculus [24]): Active | inhibition (HK-2 [25]): Active
